Experimental data from US12264163B2, “Compounds and methods for treating fibrotic pathologies” (Mayo Foundation for Medical Education and Research, priority 2019, dated 2025).
Where a name gives a salt, the structure may show the parent alone.

Key:
YAP/TAZ [1] = experiment: YAP/TAZ nuclear localization in IPF patient-derived lung fibroblasts treated with dopaminergic agonists; format: cell-based, human; conditions: for Nuclear localization (% of total cells): 10 μM, 2 hours
Procedure: IPF patient-derived lung fibroblasts cells treated 2 hours prior to fixation with diverse dopaminergic agonists (10 μM). N=4 different patient samples. % nuclear localization of YAP/TAZ was determined using automated imaging software. Scale bar represents 100 μm.
(§1) Media was then exchanged for the indicated conditions for each experiment. […] Cells or tissue sections were incubated overnight with mouse monoclonal antibody against αSMA (Sigma-Aldrich F3777), and/or a rabbit monoclonal antibody against YAP/TAZ (Cell Signaling D24E4) diluted 1:200 in PBS with 1% BSA. Cells were then washed and exposed to flourescence-conjugated secondary antibodies (Invitrogen) diluted 1:1000 and DAPI (Thermo Fisher Scientific). Images were taken with a Cytation5 (BioTek) microscope. For scoring αSMA positive cells (FIG. 12), an observer blinded to the treatment conditions counted αSMA-positive cells using a visual threshold for bright fibrous staining; a minimum of 200 cells was counted for each condition. YAP/TAZ localization was quantified (FIGS. 6-10, 24-26, and 29-30) using Gen5 (Biotek) software. Images were taken at 4× magnification of both DAPI and YAP/TAZ staining. […] Quantification of double positive (YAP/TAZ and αSMA) cells from lung tissue sections (FIG. 17-21) was performed similarly; however separate thresholds were established for both YAP/TAZ and αSMA. A minimum of 4000 cells was quantified for each mouse.

αSMA [2] = experiment: αSMA intensity (fibroblast activation) in IPF patient-derived lung fibroblasts + TGFβ, dopaminergic agonist library; format: cell-based, human; conditions: 1 μM + TGFβ, 72 hours
Procedure: as §1

CTGF, COL1A1, ACTA2, FN1 = experiment: Profibrotic / matrix remodeling gene expression by qPCR in fibroblasts; format: cell-based, human; conditions: for profibrotic gene expression / effect of D1 antagonist on DHX's inhibition of YAP/TAZ target genes: IMR-90 lung fibroblasts; for profibrotic gene expression: 24 hours
Procedure: Genes which encode Connective tissue growth factor (CTGF), Collagen I (COL1A1), αSMA (ACTA2), and Fibronectin (FN1) are reduced by 24 hour treatment with DHX (10 μM), +/−SCH 39166 (3 μM). N=3 (****p<0.0001, ***p<0.001, *p<0.05 vs. 0.1% DMSO vehicle control)
IPF patient-derived fibroblasts cultured in media containing 0.1% FBS were stimulated for 24 hours with 2 ng/mL TGFβ and 10 μM DHX prior to RNA isolation. Genes which encode for ECM crosslinking: transglutaminase 2 (TGM2), lysyl oxidase and lysyl oxidase-like enzymes (LOX and LOXL1-4), ECM degradation: uPA (PLAU), tPa (PLAT), cathepsin K (CTSK), and matrix metalloprotease-14 (MMP14) and ECM protease inhibitors: metalloprotease inhibitor 3 (TIMP3), and plasminogen activator inhibitor 1 (SERPINE1) were measured. N=3. (****p<0.0001, ***p<0.001, **p<0.01, *p<0.05 vs. 0.1% DMSO vehicle control non-TGFβ treated), (++++p<0.0001, ++p<0.01, +p<0.05 vs. 0.10% DMSO vehicle control TGFβ treated).
For all other in vitro experiments, cells were treated as indicated prior to RNA isolation using RNeasy Plus Mini Kit (Qiagen) according to manufacturer's instructions. Isolated RNA (250 ng) was then used to synthesize cDNA using SuperScript VILO (Invitrogen). Quantitative PCR was performed using FastStart Essential DNA Green Master (Roche) and analyzed using a LightCycler 96 (Roche). Data are expressed as a fold change by ΔΔCt relative to GAPDH. For in vivo experiments, tissue was immediately frozen, and stored at −80° C. RNA isolation, cDNA synthesis, and qPCR analysis were performed as above.

D1 receptor = conditions: cited from earlier work
YAP/TAZ [3] = experiment: YAP/TAZ nuclear localization in adult lung fibroblasts, dose response (Cytation 5); format: cell-based; conditions: Homo sapiens, Fibroblast, 2 h, adult lung fibroblasts sparsely plated, treated 2 hours; read-out: IC50, inhibition of YAP/TAZ nuclear localization
Procedure: Adult lung fibroblasts (N=2) sparsely plated into 96-well plates. Treated for 2 hours with compounds prior to fixing and immunostaining for YAP/TAZ.
(§2) Immunofluorescence Microscopy: Cells were plated into 96 well plates (Corning 3603) in their specific growth media and allowed to attach (8 hours). Media was then exchanged for the indicated conditions for each experiment. Cells were fixed in 3.7% formalin (Sigma-Aldrich), permeabilized in 0.25% Triton X-100 (Sigma-Aldrich) and then blocked with 1% BSA for 1 h. Cells or tissue sections were incubated overnight with mouse monoclonal antibody against αSMA (Sigma-Aldrich F3777), and/or a rabbit monoclonal antibody against YAP/TAZ (Cell Signaling D24E4) diluted 1:200 in PBS with 1% BSA. Cells were then washed and exposed to flourescence-conjugated secondary antibodies (Invitrogen) diluted 1:1000 and DAPI (Thermo Fisher Scientific). Images were taken with a Cytation5 (BioTek) microscope. For scoring αSMA positive cells (FIG. 12), an observer blinded to the treatment conditions counted αSMA-positive cells using a visual threshold for bright fibrous staining; a minimum of 200 cells was counted for each condition. YAP/TAZ localization was quantified (FIGS. 6-10, 24-26, and 29-30) using Gen5 (Biotek) software. Images were taken at 4× magnification of both DAPI and YAP/TAZ staining. […] Quantification of double positive (YAP/TAZ and αSMA) cells from lung tissue sections (FIG. 17-21) was performed similarly; however separate thresholds were established for both YAP/TAZ and αSMA. A minimum of 4000 cells was quantified for each mouse.

[4] = system: IPF patient derived fibroblasts; experiment: Traction force microscopy of IPF patient-derived fibroblasts; format: cell-based, human; conditions: IPF fibroblasts on 6.4 kPa matrices
Procedure: Traction Force Microscopy: Traction analysis was conducted as previously described. […] IPF patient derived fibroblasts were plated on the gels overnight and treated as indicated before traction force measurements. Images of gel surface-conjugated fluorescent beads were acquired for each cell before and after trypsinization using a Nikon ECLIPSE Ti microscope at ×10 magnification. Traction forces were estimated by measuring bead displacement fields and computing corresponding traction fields using TractionsForAll (freely distributed program that calculates 2-D tractions exerted by an adherent cell on its substrate).

αSMA [5] = experiment: TGFβ-induced αSMA+ stress fiber formation in fibroblasts; format: cell-based, human; conditions: IPF-patient derived fibroblasts, TGFβ 48 hours, then dopamine 1 μM + TGFβ 24 hours
Procedure: Media was then exchanged for the indicated conditions for each experiment. Cells were fixed in 3.7% formalin (Sigma-Aldrich), permeabilized in 0.25% Triton X-100 (Sigma-Aldrich) and then blocked with 1% BSA for 1 h. Cells or tissue sections were incubated overnight with mouse monoclonal antibody against αSMA (Sigma-Aldrich F3777), and/or a rabbit monoclonal antibody against YAP/TAZ (Cell Signaling D24E4) diluted 1:200 in PBS with 1% BSA. Cells were then washed and exposed to flourescence-conjugated secondary antibodies (Invitrogen) diluted 1:1000 and DAPI (Thermo Fisher Scientific). Images were taken with a Cytation5 (BioTek) microscope. For scoring αSMA positive cells (FIG. 12), an observer blinded to the treatment conditions counted αSMA-positive cells using a visual threshold for bright fibrous staining; a minimum of 200 cells was counted for each condition. YAP/TAZ localization was quantified (FIGS. 6-10, 24-26, and 29-30) using Gen5 (Biotek) software. Images were taken at 4× magnification of both DAPI and YAP/TAZ staining. […] Quantification of double positive (YAP/TAZ and αSMA) cells from lung tissue sections (FIG. 17-21) was performed similarly; however separate thresholds were established for both YAP/TAZ and αSMA. A minimum of 4000 cells was quantified for each mouse.

YAP/TAZ [6] = experiment: YAP/TAZ nuclear localization in IMR-90 and other fibroblasts / mesenchymal cells (immunofluorescence); format: cell-based, human; conditions: IMR-90 lung fibroblasts
Procedure: Selective agonists of dopamine receptor D1 with varying efficacy inhibit YAP/TAZ nuclear localization; this effect can be overcome by treatment with a DRD1 receptor antagonist (SCH 39166, 3 μM), (Dihydrexidine, 10 μM). IMR-90 cells treated 2 hours prior to fixation. N=4 (****p<0.0001 vs. 0.10% DMSO vehicle control). Scale bar represents 100 μm.
In each case DHX treatment (10 μM) can reverse this effect on YAP/TAZ. IMR-90 cells plated densely onto plastic cell culture plates for 24 hours in media containing 0.1% FBS, treated for 2 hours prior to fixation. N=4 (****p<0.0001 vs. 0.1% DMSO vehicle control), (++++p<0.0001 vs. the respective stimulated agonist ET-1, LPA, or 5-HT). Scale bar represents 100 μm.
Mesenchymal cells derived from lung (IMR-90 and IPF-FBs) hepatic stellate cells (HSC), human adult cardiac fibroblasts, (HACF) and human dermal fibroblasts (HDF) were plated densely (Confluent) or sparsely (Control and all remaining conditions) onto plastic cell culture plates for 24 hours in media containing 0.10% FBS, treated for 2 hours with Rho kinase inhibitor Y27632, adenylate cyclase activator forskolin and DHX. N=4, Cells that were positive for nuclear YAP/TAZ were quantified by automated image analysis.
as §2

cAMP = cAMP assay (cAMP-Glo) in fibroblasts; format: cell-based, human; conditions: IMR-90 lung fibroblasts
Procedure: FIG. 9 contains a bar graph showing cAMP measured in IPF patient-derived fibroblasts treated for 20 minutes with DHX (10 μM)+/−SCH 39166 (3 μM). N=3 (**p<0.01 vs. 0.1% DMSO vehicle control).
N=3, IMR-90 lung fibroblasts.
cAMPAssay: IPF patient derived fibroblasts were plated in EMEM containing 10% FBS overnight. […] 20 minutes prior to cell lysis media was removed and cells were treated with “induction buffer” containing nonselective phosphodiesterase inhibitors and the indicated concentration of compound(s). Luminescence was measured on a Flexstation 3 (Molecular Devices) plate reader.

SMILES	Nuclear localization (% of total cells) (YAP/TAZ [1]; IPF-1 patient fibroblasts)	Nuclear localization (% of total cells) (YAP/TAZ [1]; IPF-2 patient fibroblasts)	Nuclear localization (% of total cells) (YAP/TAZ [1]; IPF-3 patient fibroblasts)	Nuclear localization (% of total cells) (YAP/TAZ [1]; IPF-4 patient fibroblasts)	IC50 (YAP/TAZ [3]) [nM]	profibrotic gene expression (CTGF, COL1A1, ACTA2, FN1)	effect of D1 antagonist on DHX's inhibition of YAP/TAZ nuclear localization (YAP/TAZ [6])	effect of D1 antagonist on DHX's elevation of cAMP (cAMP)	effect of D1 antagonist on DHX's inhibition of YAP/TAZ target genes (CTGF, COL1A1, ACTA2, FN1)	further results
Cl.NC[C@@H]1O[C@H](c2ccccc2)Cc2c1ccc(O)c2O [A 68930•HCl, A 68930]	33.13 % of total cells	30.59 % of total cells	26.82 % of total cells	10.26 % of total cells	–	–	–	–	–	αSMA intensity (% of DMSO control) (αSMA [2]; IPF-1 patient fibroblasts): 12.4 % of DMSO control; αSMA intensity (% of DMSO control) (αSMA [2]; IPF-2 patient fibroblasts): 8.111 % of DMSO control; αSMA intensity (% of DMSO control) (αSMA [2]; IPF-3 patient fibroblasts): 3.245 % of DMSO control; αSMA intensity (% of DMSO control) (αSMA [2]; IPF-4 patient fibroblasts): 7.35 % of DMSO control; profibrotic gene expression in human dermal fibroblasts (CTGF, COL1A1, ACTA2, FN1; human dermal fibroblasts, 24 hours +/− 2 ng/mL TGFβ): blocks profibrotic gene expression; efficacy at elevating cAMP (D1 receptor) (D1 receptor): lacks full efficacy to elevate cAMP
NCC1OC(C2CCCOC2)Cc2c1ccc(O)c2O (stereo not drawn) [CTC-1]	–	–	–	–	285	inhibition of profibrotic gene expression	–	–	–	–
CC(C)(CO)C1Cc2c(ccc(O)c2O)C(CN)O1 (stereo not drawn) [CTC-2]	–	–	–	–	490	inhibition of profibrotic gene expression	–	–	–	–
NCCc1ccc(O)c(O)c1 [Dopamine•HCl, Dopamine]	39.85 % of total cells	59.29 % of total cells	49.67 % of total cells	49.51 % of total cells	–	–	–	–	–	YAP/TAZ nuclear localization (YAP/TAZ [1]; low density IPF-patient derived fibroblasts on tissue culture plastic): inhibits YAP/TAZ nuclear localization; contractile forces (traction force microscopy) [4]: attenuates IPF fibroblast contractility; αSMA+ stress fiber formation (αSMA [5]): reverses αSMA+ stress fiber formation
CN1CCc2ccccc2Cc2[nH]c3ccccc3c2CC1 [LE-300]	–	–	–	–	–	–	block DHX's inhibition of YAP/TAZ nuclear localization	block DHX's elevation of cAMP	block DHX's inhibition of YAP/TAZ target genes	–
CN1CCc2cc(Cl)c(O)cc2[C@H]2c3ccccc3CC[C@@H]21 [SCH-39166]	–	–	–	–	–	–	block DHX's inhibition of YAP/TAZ nuclear localization	block DHX's elevation of cAMP	block DHX's inhibition of YAP/TAZ target genes	–
